Values joined by “and” are separate entries in the source; they are usually repeats but may differ in a detail not shown here. Equal values may be shown once.
System: Clostridium acetobutylicum strain ATCC 824
Test: Sequential batch transfer in 24-well culture plates (butanol, residual glucose, butanol yield and productivity)
Type: cell-based
Details: for Butanol: Experiment 1; for Residual glucose concentration: initial glucose 60 g/L
Description: Each well contained 1.5 mL of growth medium. Peptide was added to each well at the indicated concentration (0, 25, 50, and 100 nM). Every 24 hours fresh medium and peptide treatment were added to a new column of wells then 1.5 μL of the previous day culture was transferred to the new well. Wells were harvested for glucose and butanol analysis after 96 hours of growth. Transfers 1, 4, 7, 10, 13, 16, […].
Briefly, Clostridium spores were germinated in a suitable growth medium for 18-24 hours then […] was transferred to 1.5 mL of fresh medium in each of four wells on a 24-well culture plate. Three of the wells had been treated with 25 nM, 50 nM and 100 nM of peptide, respectively while the fourth well was untreated. Thereafter, every 24 hours […] of each subculture was transferred to 1.5 mL of fresh medium that contained the same peptide treatment or no treatment. Transfers of successive subcultures were done for 24 days, and each subculture was grown for 96 hours before being harvested. Culture supernatants were recovered following centrifugation and were analyzed for butanol and residual glucose concentrations. Determination of optimum peptide treatment levels was based on a graphical comparison of the concentration of butanol in each of the four culture wells for sequential transfers 1, 4, 7, 10, 13, 16, 19, 22 and 24.
Clostridium acetobutylicum strain ATCC 824 was used in all experiments and the growth medium used for sequential batch transfer, time course, and continuous culture experiments contained yeast extract, casamino acids, L-cysteine, L-asparagine, phosphate buffer, trace minerals, and 6% glucose. What are believed to be quorum-sensing peptides that were used in the experiments were chemically synthesized peptides SEQ ID NO: 143 (amino acid sequence: SYPGWSW) and SEQ ID NO: 144 (amino acid sequence: ILILISG). Routine growth of the bacteria as well as the sequential batch and time course experiments were conducted in a Form a Scientific Model 1029 anaerobic gas chamber at 32° C. Continuous cultures were performed at 32° C. using duplicate New Brunswick Scientific BioFlo 3000 apparati with a dilution rate of 0.01 volume per hour, 75 rpm agitation, and nitrogen gas sparging. Optical density of culture samples was measured at 600 nm in a Beckman DU 600 series spectrophotometer and glucose was analyzed using a YSI Model 2700 Select Biochemistry Analyzer with internal glucose calibration. Butanol concentrations were determined by measuring experimental and standard samples using a Varian Saturn 3 Gas Chromatograph/Mass Spectrometer and calculating butanol concentrations using standard curves.
(§1) Sequential batch transfer experiments were carried out in 24-well culture plates that contained 1.5 mL of medium per well. Peptide was added to each well at the indicated concentrations of 0 nM (control), 25 nM, 50 nM, or 100 nM. Every 24 hours, fresh medium and peptide treatments were added to a new column of wells. Then, 1.5 uL of the previous day culture was transferred to the new well. Wells were harvested for glucose and butanol analysis after 96 hours of growth; transfers 1, 4, 7, 10, 13, 16, 19, 22, and 24 were analyzed. Two representative experiments are shown in Tables 30 and 31 and FIGS. 14 and 15.
as §1, with “32” for “30”, “33” for “31”, “16” for “14”, “17.” for “15.”

[1] = 50 nM, transfer 10, first experiment, after 96 hours of culture
[2] = 50 nM, transfer 13, first experiment, after 96 hours of culture
[3] = 50 nM, transfer 16, first experiment, after 96 hours of culture
[4] = 50 nM, transfer 19, first experiment, after 96 hours of culture
[5] = 50 nM, transfer 22, first experiment, after 96 hours of culture
[6] = 50 nM, transfer 24, first experiment, after 96 hours of culture
[7] = 100 nM peptide, transfer 1, after 96 hours of culture, Expt. 2 (repeat)
[8] = 100 nM peptide, transfer 4, after 96 hours of culture, Expt. 2 (repeat)
[9] = 100 nM peptide, transfer 7, after 96 hours of culture, Expt. 2 (repeat)
[10] = 100 nM peptide, transfer 10, after 96 hours of culture, Expt. 2 (repeat)
[11] = 100 nM peptide, transfer 13, after 96 hours of culture, Expt. 2 (repeat)
[12] = 100 nM peptide, transfer 16, after 96 hours of culture, Expt. 2 (repeat)
[13] = 100 nM peptide, transfer 19, after 96 hours of culture, Expt. 2 (repeat)
[14] = 100 nM peptide, transfer 22, after 96 hours of culture, Expt. 2 (repeat)
[15] = 100 nM peptide, transfer 24, after 96 hours of culture, Expt. 2 (repeat)
[16] = 100 nM, transfer 1, first experiment, after 96 hours of culture
[17] = 100 nM, transfer 4, first experiment, after 96 hours of culture
[18] = 100 nM, transfer 7, first experiment, after 96 hours of culture
[19] = 100 nM, transfer 10, first experiment, after 96 hours of culture
[20] = 100 nM, transfer 13, first experiment, after 96 hours of culture
[21] = 100 nM, transfer 16, first experiment, after 96 hours of culture
[22] = 100 nM, transfer 19, first experiment, after 96 hours of culture
[23] = 100 nM, transfer 22, first experiment, after 96 hours of culture
[24] = 100 nM, transfer 24, first experiment, after 96 hours of culture
[25] = BP110517 first experiment, 25 nM, transfers 19, 22 and 24
[26] = BP110517 first experiment, 50 nM, transfer 10

Substance: SYPGWSW [peptide SEQ ID NO: 143]
- Butanol (50 nM, transfer 10, after 96 hours of culture, listed as BP110517): 13.7 g/L and 13.66 g/L
- Butanol productivity [1]: 0.14 g butanol/L-h
- Butanol yield [1]: 0.23 g butanol/g/glucose
- Residual glucose concentration [1]: 0.1 g/L
- Butanol (50 nM, transfer 13, after 96 hours of culture): 10.28 g/L
- Butanol productivity [2]: 0.11 g butanol/L-h
- Butanol yield [2]: 0.17 g butanol/g/glucose
- Residual glucose concentration [2]: 0.1 g/L
- Butanol (50 nM, transfer 16, after 96 hours of culture): 10.95 g/L
- Butanol productivity [3]: 0.11 g butanol/L-h
- Butanol yield [3]: 0.18 g butanol/g/glucose
- Residual glucose concentration [3]: 0.1 g/L
- Butanol (50 nM, transfer 19, after 96 hours of culture): 3.96 g/L
- Butanol productivity [4]: 0.04 g butanol/L-h
- Butanol yield [4]: 0.07 g butanol/g/glucose
- Residual glucose concentration [4]: 47.6 g/L
- Butanol (50 nM, transfer 22, after 96 hours of culture): 5.35 g/L
- Butanol productivity [5]: 0.06 g butanol/L-h
- Butanol yield [5]: 0.09 g butanol/g/glucose
- Residual glucose concentration [5]: 45.9 g/L
- Butanol (50 nM, transfer 24, after 96 hours of culture): 4.70 g/L
- Butanol productivity [6]: 0.05 g butanol/L-h
- Butanol yield [6]: 0.08 g butanol/g/glucose
- Residual glucose concentration [6]: 50.2 g/L
- Butanol concentration [7]: 0.62 g/L
- Butanol productivity [7]: 0.01 g butanol/L-h
- Butanol yield [7]: 0.01 g butanol/g/glucose
- Residual glucose concentration [7]: 55.6 g/L
- Butanol concentration [8]: 1.50 g/L
- Butanol productivity [8]: 0.02 g butanol/L-h
- Butanol yield [8]: 0.03 g butanol/g/glucose
- Residual glucose concentration [8]: 49.3 g/L
- Butanol concentration [9]: 4.10 g/L
- Butanol productivity [9]: 0.04 g butanol/L-h
- Butanol yield [9]: 0.07 g butanol/g/glucose
- Residual glucose concentration [9]: 0.1 g/L
- Butanol concentration [10]: 7.37 g/L
- Butanol productivity [10]: 0.08 g butanol/L-h
- Butanol yield [10]: 0.13 g butanol/g/glucose
- Residual glucose concentration [10]: 0.1 g/L
- Butanol concentration [11]: 5.60 g/L
- Butanol productivity [11]: 0.06 g butanol/L-h
- Butanol yield [11]: 0.10 g butanol/g/glucose
- Residual glucose concentration [11]: 0.1 g/L
- Butanol concentration [12]: 7.51 g/L
- Butanol productivity [12]: 0.08 g butanol/L-h
- Butanol yield [12]: 0.13 g butanol/g/glucose
- Residual glucose concentration [12]: 0.1 g/L
- Butanol concentration [13]: 4.03 g/L
- Butanol productivity [13]: 0.04 g butanol/L-h
- Butanol yield [13]: 0.07 g butanol/g/glucose
- Residual glucose concentration [13]: 0.1 g/L
- Butanol concentration [14]: 5.05 g/L
- Butanol productivity [14]: 0.05 g butanol/L-h
- Butanol yield [14]: 0.09 g butanol/g/glucose
- Residual glucose concentration [14]: 0.1 g/L
- Butanol concentration [15]: 3.42 g/L
- Butanol productivity [15]: 0.04 g butanol/L-h
- Butanol yield [15]: 0.06 g butanol/g/glucose
- Residual glucose concentration [15]: 0.1 g/L
- Butanol (100 nM, transfer 1, after 96 hours of culture): 1.14 g/L
- Butanol productivity [16]: 0.01 g butanol/L-h
- Butanol yield [16]: 0.02 g butanol/g/glucose
- Residual glucose concentration [16]: 48.3 g/L
- Butanol (100 nM, transfer 4, after 96 hours of culture): 6.97 g/L
- Butanol productivity [17]: 0.07 g butanol/L-h
- Butanol yield [17]: 0.12 g butanol/g/glucose
- Residual glucose concentration [17]: 0.1 g/L
- Butanol (100 nM, transfer 7, after 96 hours of culture): 7.33 g/L
- Butanol productivity [18]: 0.08 g butanol/L-h
- Butanol yield [18]: 0.12 g butanol/g/glucose
- Residual glucose concentration [18]: 0.1 g/L
- Butanol (100 nM, transfer 10, after 96 hours of culture): 11.33 g/L
- Butanol productivity [19]: 0.12 g butanol/L-h
- Butanol yield [19]: 0.19 g butanol/g/glucose
- Residual glucose concentration [19]: 0.1 g/L
- Butanol (100 nM, transfer 13, after 96 hours of culture): 7.22 g/L
- Butanol productivity [20]: 0.08 g butanol/L-h
- Butanol yield [20]: 0.12 g butanol/g/glucose
- Residual glucose concentration [20]: 0.1 g/L
- Butanol (100 nM, transfer 16, after 96 hours of culture): 9.59 g/L
- Butanol productivity [21]: 0.10 g butanol/L-h
- Butanol yield [21]: 0.16 g butanol/g/glucose
- Residual glucose concentration [21]: 0.1 g/L
- Butanol (100 nM, transfer 19, after 96 hours of culture): 4.76 g/L
- Butanol productivity [22]: 0.05 g butanol/L-h
- Butanol yield [22]: 0.08 g butanol/g/glucose
- Residual glucose concentration [22]: 0.1 g/L
- Butanol (100 nM, transfer 22, after 96 hours of culture): 6.85 g/L
- Butanol productivity [23]: 0.07 g butanol/L-h
- Butanol yield [23]: 0.11 g butanol/g/glucose
- Residual glucose concentration [23]: 0.1 g/L
- Butanol (100 nM, transfer 24, after 96 hours of culture): 4.67 g/L
- Butanol productivity [24]: 0.05 g butanol/L-h
- Butanol yield [24]: 0.08 g butanol/g/glucose
- Residual glucose concentration [24]: 0.1 g/L
- Transfers over which butanol production was enhanced (BP110517, sequential batch cultures (summary of findings)): transfer 4 through transfer 19
- Butanol yield and productivity greater than untreated control (BP110517 first experiment, 25 nM, transfer 4): 23%
- Butanol yield and productivity greater than untreated control (BP110517 first experiment, 25 nM, transfer 16): 24%
- Decrease of butanol concentration below that of controls [25]: 20%
- Reduction in glucose utilization [25]: 80%
- Butanol yield and productivity greater than untreated control (BP110517 first experiment, 50 nM, transfer 4): 20%
- Butanol productivity [26]: 0.14 g butanol/1-hour
- Butanol yield [26]: 0.23 g butanol/g glucose
- Butanol yield and productivity greater than untreated control [26]: 46%
- Butanol yield and productivity greater than untreated control (BP110517 first experiment, 50 nM, transfer 16): 16%
- Effect on butanol production versus untreated control (BP110517 first experiment, 100 nM, except at transfer 10): generally resulted in decreased butanol production, or no difference from the untreated control
- Glucose consumption (BP110517 first experiment, all treated and untreated cultures, transfer 4 through transfer 16): ~100%
- Increase in butanol over untreated control (SEQ ID NO: 143 first experiment, 25 nM, transfer 4): ~25%
- Increase in butanol over untreated control (SEQ ID NO: 143 first experiment, 25 nM, transfer 4, listed as BP110517): 23%
- Increase in butanol over untreated control (SEQ ID NO: 143 first experiment, 25 nM, transfer 16): 24%
- Increase in butanol over untreated control (SEQ ID NO: 143 first experiment, 50 nM, transfer 4): ~25%
- Increase in butanol over untreated control (SEQ ID NO: 143 first experiment, 50 nM, transfer 4, listed as BP110517): 20%
- Increase in butanol over untreated control (SEQ ID NO: 143 first experiment, 50 nM, transfer 10): 46%
- Increase in butanol over untreated control (SEQ ID NO: 143 first experiment, 50 nM, transfer 16): 16%
- Increase in butanol over untreated control (SEQ ID NO: 143 first experiment, 100 nM, transfer 10): 21%
- Increase in butanol over untreated control (SEQ ID NO: 143 second experiment, 50 nM, transfer 10): more than 200%
- Increase in butanol over untreated control (SEQ ID NO: 143 second experiment, 50 nM, transfer 10, listed as BP110517): 223%
- Increase in butanol over untreated control (SEQ ID NO: 143 second experiment, 50 nM, transfer 13): 289%
- Increase in butanol over untreated control (SEQ ID NO: 143 second experiment, 50 nM, transfer 16): 170%
- Increase in butanol over untreated control (SEQ ID NO: 143 second experiment, 100 nM, transfer 10): more than 200%
- Effect on differentiation and butanol production (sequential and continuous cultures): inducer of differentiation and butanol production
